Like-named read-outs stand apart in the source and are kept apart here.
Key:
[1] = test system: normal, healthy volunteers; conditions: human, device loaded sodium nitrite
Method: Vial 3 contained 0.1 mM sodium phosphate only. In the preliminary dose escalation to the maximum tolerated dose (MTD), immediately prior to administration, an equal portion of Vial 1 and Vial 2 were admixed and then diluted with Vial 3 contents as appropriate to achieve lower concentration dosing solutions for the dose-escalation protocol. Following establishment of the Vial 1+Vial 2 admixed test material MTD, additional dosing cohorts of 3 subjects were enrolled at the Vial 1+Vial 2 MTD, using Vial 3-diluted Vial 1 contents only.
Each subject also received vehicle control. The nebulizer used for this study was the Aerogen Idehaler. The Aerogen Idehaler is a combination of two units. The nebulization head is the Aeroneb® Solo (Aerogen, Galway, Ireland) and the aerosol-reservoir attachment Idehaler™ (Diffusion Technique Francais, Saint Etienne, France).

[2] = test system: monocrotaline-induced pulmonary hypertension; test: Monocrotaline model of pulmonary hypertension, inhaled nebulized liquid sodium nitrite; conditions: rat, 5 μg/kg liquid aerosol
[3] = test system: hypoxia-induced pulmonary hypertension; conditions: cited from earlier work
[4] = for VMD: n = 6, mean ± sd
Method: It was evaluated in tidal breathing mode (TBM) only.
The output characteristics of the three nebulizers (one of each type) were measured to determine the particle size distribution, inspired dose, residual dose, nebulizer output and duration of nebulization. The nebulizer efficiency, defined as the inhaled fine particle dose as a percent of the total loaded dose, was also determined. Each nebulizer was studied in duplicate, for a total of 6 measures per device type.
Particle Sizing. Nebulizers were weighed dry, full, and at the end of each study to determine gravimetric output and residual volume. Nebulizers were connected to the inhalation cell of the Insitec Laser (Malvern Instruments Ltd, Malvern, Worcestershire, UK) using a flexible airtight connector. The nebulizer and inhalation cell were oriented in a horizontal position. The output end of the inhalation cell was connected to a vacuum generator providing a continuous flow of 20 LPM across the laser beam. For measurements made with the I-neb, the output end of the inhalation cell was connected to a breath simulator, which permitted cyclic particle size measurements using the following breathing pattern: Rate=15 bpm, Volume=500 mL, I.T=2.0 seconds. This is the breathing pattern used for the output studies as well.
Each study was timed from the beginning of nebulization and run for a total of 2 minutes. During the first minute, no measurements were made to allow for equilibration of the solution. Particle sizing was begun and analyzed continuously for the duration of the 2nd minute. All data points were averaged for each measure.
1. VMD: Volume Median Diameter
2. GSD: Geometric Standard Deviation
3. %<3p: The percent of particles <3 microns
4. %<5p: The percent of particles <5 microns
5. Duration: Two minute total cycle time

in vivo [5] = conditions: male, Sprague-Dawley, rat, plasma, 10 mg/kg; for half-life: T1/2, rat
[6] = test system: monocrotaline-induced pulmonary hypertension; conditions: for RV:LV + S: MCT 50 mg/kg sc, three times per week for four weeks
[7] = Method: High concentrations permit reduced administration times (important for patient compliance), but suffer in that their associated osmolality and intense taste may mitigate this advantage. […] Nebulized solutions were inhaled to a shallow throat level and analyzed for: taste (saltiness), throat irritation, and sore throat. […] Sodium chloride is also considered in the art as helpful to alleviate cough. Therefore, this was also tested.
Summary. […] Finally, because viscosity and surface tension can be important contributors to optimal I-neb (Respironics, Inc., Murrysville, Pa.), Aerogen Aeroneb Go (Aerogen, Inc., Galway, Ireland) or other vibrating mesh nebulizer performance, potential formulations were screened in these devices to measure the effect of formulation on device output rate and aerosol particle size.

in vivo [8] = conditions: rat, plasma
Method: Rats (n=3-4/group, ˜400 gm) were anesthetized with Isoflorane and the dry powder was insufflated intratracheally using a Penn-Century Insufflator (model DP-4: Philadelphia, Pa.). Blood was collected in heparinized tubes just prior to dosing, 5, 15, 30 and 60 minutes after dosing, immediately put on wet ice and then centrifuged at 13,000 rpm in a microcentrifuge for 45 sec. Plasma was harvested and frozen at −80° C. until analysis.

Sprague-Dawley rats = test: 7-day inhalation dose range finding toxicology, rat
Method: Formulations. […] The formulations defined below were titrated by nebulization time to achieve the dose levels define in Table 21.
Results & Discussion (Rats). A 7-Day range-finding study with nebulized Formulation I Inhalation Solution was performed via inhalation through the nose of male and female Sprague-Dawley rats.

[9] = inhaled or intranasal, IT (dry powder, normalized to 10 mg/kg)
[10] = inhaled or intranasal, IT (liquid, 10 mg/kg)
[11] = inhaled or intranasal, 90 ug/kg
[12] = inhaled or intranasal, 700 ug/kg
[13] = 101 mg/kg/day inhaled (dose lowered after day 1)
[14] = high dose group after lowering of dose, printed (76)

O=NO [sodium nitrite]
well tolerated doses [1]: less than or equal to 125 mg
plasma nitrite, extrapolated [2]: ~0.1 µM
NO in expired air, peak ([3]; after 20 minutes inhalation): approximately 15 ppb
reduction in hypoxia-induced pulmonary hypertension compared with saline nebulization ([3]; newborn lambs, inhaled nitrite 15 mg/minute): approximately 65%
minimal effective dose ([3]; newborn lambs): 1.5 mg/min
time reduction in PAP was maintained after cessation of inhalation ([3]; newborn lambs): at least 1 hour
GSD ([4]; Aeroneb Go): 2.1 ± 0.1
VMD ([4]; Aeroneb Go): 4.6 ± 0.1
GSD ([4]; I-neb): 1.8 ± 0.1
VMD ([4]; I-neb): 4.8 ± 0.5
GSD ([4]; PARI STAR): 2.8 ± 0.1
VMD ([4]; PARI STAR): 1.7 ± 0.1
AUC (in vivo [5]; [9]): 4270 ng·h/mL
AUC (in vivo [5]; [10]): 2820 ng·h/mL
Cmax (in vivo [5]; [9]): 172 µM
Cmax (in vivo [5]; [10]): 164 µM
half-life (in vivo [5]; [9]): 19 min
half-life (in vivo [5]; [10]): 10 min
Tmax (in vivo [5]; [9]): 5 min
Tmax (in vivo [5]; [10]): 15 min
AUC (in vivo [5]; iv, IV (10 mg/kg)): 8120 ng·h/mL
Cmax (in vivo [5]; iv, IV (10 mg/kg)): 312 µM
half-life (in vivo [5]; iv, IV (10 mg/kg)): 20 min
Tmax (in vivo [5]; iv, IV (10 mg/kg)): 5 min
RV:LV + S ([6]; dry powder 1 μg/kg intratracheal): 0.363 ± 0.029
RV:LV + S ([6]; dry powder 10 μg/kg intratracheal): 0.328 ± 0.025
decrease of RV:LV+S ([6]; high dose (10 μg/kg), p<0.05): up to 48%
level of nitric oxide produced ([7]; 75 mg/mL sodium nitrite, 1.56 mM citric acid, […] sodium saccharin, pH 5.41 admixed dosing solution): ~200 parts per billion
nitric oxide produced and released ([7]; aqueous sodium nitrite titrated with citric acid): ~200 parts per billion
nitric oxide relative to same formulation lacking ascorbic acid ([7]; citric acid, pH ~5.5, 1:256 molar ratio ascorbic acid to nitrite): ~4 fold
nitric oxide produced and released upon vibrating mesh nebulization ([7]; nitrite:ascorbic acid 256:1 mixture, Aeroneb Go Lab): ~800 ppb
level of nitric oxide produced ([7]; same dosing solution in the absence of citric acid): ~150 parts per billion
level of nitric oxide produced ([7]; same formulation with ascorbic acid): ~800 parts per billion
AUC (in vivo [8]; [11]): 15.8 ng·h/mL
Cmax (in vivo [8]; [11]): 1.8 µM
Tmax (in vivo [8]; [11]): 5 min
half-life (in vivo [8]; [11]): 4 min
AUC (in vivo [8]; [12]): 292 ng·h/mL
Cmax (in vivo [8]; [12]): 25.8 µM
Tmax (in vivo [8]; [12]): 5 min
half-life (in vivo [8]; [12]): 10 min
Cmax (in vivo [8]; other: intratracheal insufflation of dry powder, 10 ug/kg): ~0.2 µM
Mortality (%) Female (Sprague-Dawley rats; 4 mg/kg/day inhaled): 0%
Mortality (%) Male (Sprague-Dawley rats; 4 mg/kg/day inhaled): 0%
Peak MetHgb (%) On Day 1 Female (Sprague-Dawley rats; 4 mg/kg/day inhaled): 1.0 ± 0.1%
Peak MetHgb (%) On Day 1 Male (Sprague-Dawley rats; 4 mg/kg/day inhaled): 1.0 ± 0.0%
Peak MetHgb (%) On Day 7 Female (Sprague-Dawley rats; 4 mg/kg/day inhaled): 1.3 ± 0.1%
Peak MetHgb (%) On Day 7 Male (Sprague-Dawley rats; 4 mg/kg/day inhaled): 1.0 ± 0.0%
Mortality (%) Female (Sprague-Dawley rats; 18 mg/kg/day inhaled): 0%
Mortality (%) Male (Sprague-Dawley rats; 18 mg/kg/day inhaled): 0%
Peak MetHgb (%) On Day 1 Female (Sprague-Dawley rats; 18 mg/kg/day inhaled): 4.5 ± 1.2%
Peak MetHgb (%) On Day 1 Male (Sprague-Dawley rats; 18 mg/kg/day inhaled): 3.4 ± 0.3%
Peak MetHgb (%) On Day 7 Female (Sprague-Dawley rats; 18 mg/kg/day inhaled): 3.8 ± 0.6%
Peak MetHgb (%) On Day 7 Male (Sprague-Dawley rats; 18 mg/kg/day inhaled): 2.3 ± 0.2%
Peak MetHgb (%) On Day 1 Female (Sprague-Dawley rats; 101 mg/kg/day inhaled): 50 ± 3.0%
Peak MetHgb (%) On Day 1 Male (Sprague-Dawley rats; 101 mg/kg/day inhaled): 41 ± 3.3%
Mortality (%) Female (Sprague-Dawley rats; [13]): 30%
Mortality (%) Male (Sprague-Dawley rats; [13]): 0%
% of particles < 3 μm (Sprague-Dawley rats; Group 2 Low Dose): 97.6%
MMAD (Sprague-Dawley rats; Group 2 Low Dose): 1.0 μm
% of particles < 3 μm (Sprague-Dawley rats; Group 3 Mid Dose): 87.6%
MMAD (Sprague-Dawley rats; Group 3 Mid Dose): 1.4 μm
% of particles < 3 μm (Sprague-Dawley rats; Group 4 High Dose): 78.5%
MMAD (Sprague-Dawley rats; Group 4 High Dose): 1.7 μm
Peak MetHgb (%) On Day 7 Female (Sprague-Dawley rats; [14]): 36 ± 3.0 %
Peak MetHgb (%) On Day 7 Male (Sprague-Dawley rats; [14]): 16 ± 4.7 %

From patent publication US20090196930A1, “AEROSOLIZED NITRITE AND NITRIC OXIDE -DONATING COMPOUNDS AND USES THEREOF” (Aires Pharmaceuticals, Inc., priority 2007, published 2009)
